Experiment: an = ratio of the nth substance listed, in mol/kg
Conditions: 100 kPa, Liquid; for electrical conductivity: Alternating current cell with electrodes

O=S(=O)([O-])[O-].[Ni+2] [nickel monosulfate] + O
Conditions | electrical conductivity, 278.15 K [S/m] | electrical conductivity, 283.15 K [S/m] | electrical conductivity, 288.15 K [S/m] | electrical conductivity, 293.15 K [S/m] | electrical conductivity, 298.15 K [S/m] | electrical conductivity, 303.15 K [S/m] | electrical conductivity, 308.15 K [S/m] | mass density, 298.15 K [kg/m3]
a1 = 0.006 | 0.0606 | 0.0696 | 0.079 | 0.0886 | 0.0984 | 0.108 | 0.119 | 998.02
a1 = 0.02566 | 0.192 | 0.221 | 0.25 | 0.28 | 0.31 | 0.341 | 0.372 | 1001.23
a1 = 0.04922 | 0.321 | 0.368 | 0.417 | 0.467 | 0.517 | 0.568 | 0.618 | 1005.09
a1 = 0.122 | 0.656 | 0.753 | 0.852 | 0.954 | 1.06 | 1.16 | 1.26 | 1017.09
a1 = 0.25 | 1.18 | 1.36 | 1.54 | 1.72 | 1.91 | 2.09 | 2.28 | 1038.54
a1 = 0.3674 | 1.55 | 1.78 | 2.01 | 2.25 | 2.5 | 2.75 | 2.99 | 1058.67
a1 = 0.4988 | 1.94 | 2.23 | 2.52 | 2.83 | 3.14 | 3.45 | 3.76 | 1081.77
a1 = 0.68 | 2.39 | 2.75 | 3.12 | 3.51 | 3.9 | 4.29 | 4.63 | 1114.8
a1 = 0.7969 | 2.64 | 3.04 | 3.45 | 3.88 | 4.31 | 4.75 | 5.19 | 1136.9
a1 = 1.022 | 2.99 | 3.46 | 3.94 | 4.44 | 4.95 | 5.47 | 5.99 | 1181.4
a1 = 1.156 | 3.13 | 3.62 | 4.13 | 4.67 | 5.22 | 5.77 | 6.34 | 1208.94
a1 = 1.394 | 3.21 | 3.73 | 4.29 | 4.87 | 5.47 | 6.08 | 6.7 | 1260.5
a1 = 1.601 | 3.11 | 3.64 | 4.2 | 4.8 | 5.42 | 6.06 | 6.7 | 1308
a1 = 1.783 | 2.89 | 3.42 | 3.99 | 4.59 | 5.22 | 5.86 | 6.53 | 1351.92

Source: the NIST ThermoML archive (doi:10.1021/je8001255)
